Read-outs that look alike come from different tables or passages of the source. One block for each compound: values may come before it.
Assays:
[1] = test system: Vero cells; assay: Light microscopy of phenothiazinium dye accumulation in cells; type: cell-based, African green monkey; details: during incubation with cells; phenothiazinium dyes 100 µM, NR 50 µg/ml
Protocol: The accumulation of phenothiazine dyes in cells was detected by light and confocal microscopies. Firstly, Vero cells were incubated with MB, NMB, TBO, and DMMB (100, 50, 25 and 12.5 µM) for 3 h, 37 °C, 5% CO2 and washed with PBS. […] For confocal detection of phenothiazinium dyes, Vero cell cultures were incubated with 10 μM of MB, NMB, TBO or DMMB for 30 min, 37 °C, with 5% CO2. For all procedures, non-treated controls were incubated with RPMI under the same conditions. The cultures were washed with PBS and treated with trypsin for 10 min, 37 °C and 5% CO2. The cells were transferred to slides and analyzed by confocal microscopy with excitation/emission wavelengths of 543/600 nm, respectively.

[2] = design: method as in PMID 23758207; details: cited from earlier work
[3] = test system: Vero cells and fibroblasts; assay: DMSO cytotoxicity, 72 h, read with phenothiazinium dyes, NR or MTT; type: cell-based, African green monkey; human; details: DMSO in concentrations above 5%
Protocol: (§1) Cells were treated with either DMSO (Vero cells and primary fibroblasts) or cisplatin (LLC-MK2, MCF 10A, and MDA-MB-231). […] After treatment with DMSO and cisplatin, labeling with MTT or NR was performed as described previously[27],[28] with modifications[29],[30]. Cells incubated with phenothiazinium dyes were processed by the same protocol used for NR. […] The cells incubated with MTT were diluted with 100 µl of DMSO. The plates were read at 540 nm (NR) or 570 nm (MTT) in an ELISA reader (Epoch Biotek). Three (LLC-MK2 and MDA-MB-231) and two (Vero cells, human primary fibroblasts and MCF 10A) independent experiments were performed.
(§2) Values for area under the curve were calculated with GraphPad Prism 8.0 software (San Diego, California USA). For cells incubated with DMSO or cisplatin, the percentage of inhibition was calculated from the absorbance of treated samples relative to their non-treated controls. These values were used to calculate the half-maximal inhibitory concentration (IC50) of cisplatin and DMSO, which was done with Compusyn software (version 1.0)[31].

[4] = test system: Vero cells; details: 72 h of incubation; cited from earlier work
[5] = test system: MCF 10A; assay: Cisplatin cytotoxicity, 72 h, read with phenothiazinium dyes, NR or MTT; type: cell-based, human
Protocol: as §1, §2

[6] = test system: MDA-MB-231; assay: as above; type: cell-based, human
Protocol: as §1, §2

[7] = test system: LLC-MK2; assay: as above; type: cell-based, rhesus monkey
Protocol: as §1, §2

[8] = test system: MDA-MB-231; design: method as in PMID 33261142; details: read-out: concentration inhibiting 50% of growth; cited from earlier work

dye precipitation / crystal formation [1]: Crystals of NR formed
SMILES: Cc1cc2nc3ccc(N(C)C)cc3nc2cc1N.Cl [NR, 3-amino-7-dimethylamino-2-methylphenazine hydrochloride]
pKa [2]: 6.9
log P ([2]; free base state): 1.9

SMILES: C[S+](C)[O-] [DMSO, dimethyl sulfoxide]
cell inhibition [3]: > 70%

SMILES: Cc1cc(N(C)C)cc2[s+]c3cc(N(C)C)cc(C)c3nc12.[Cl-] [DMMB, 3,7-bis(dimethylamino)-1,9-dimethylphenothiazin-5-ium chloride]
concentrations with toxic effects [4]: below 10 µM

SMILES: N.N.[Cl][Pt][Cl] [cisplatin, cis-diammineplatinum (II) dichloride]
concentrations at which cells were resistant [5]: below 25 µM
IC50 ([5]; indicator DMMB): 14.8 µM
IC50 ([5]; indicator MB): 9.26 µM
IC50 ([5]; indicator MTT): 11.9 µM
IC50 ([5]; indicator NMB): 17.1 µM
IC50 ([5]; indicator NR): 13.5 µM
IC50 ([5]; indicator TBO): 14.6 µM
cell inhibition ([6]; cisplatin at concentrations above 12.5 µM): more than 50%
IC50 ([6]; indicator NMB): 1.83 µM
IC50 ([6]; indicator NR): 8.44 µM
concentrations at which cells were resistant [7]: < 50 µM
IC50 ([7]; indicator DMMB): 29.5 µM
IC50 ([7]; indicator MB): 19 µM
IC50 ([7]; indicator MTT): 25.2 µM
IC50 ([7]; indicator NMB): 28.2 µM
IC50 ([7]; indicator NR): 34.9 µM
IC50 ([7]; indicator TBO): 30.4 µM
IC50 [8]: 6 µM
